Reference: US20240247266A1, “METHODS AND COMPOSITIONS FOR TREATING AN ANGIOTENSINOGEN- (AGT-) ASSOCIATED DISORDER” (Alnylam Pharmaceuticals, Inc., priority 2021, published 2024)

Tests used:
Assay type in all cases: in vivo, human
serum AGT = assay: Example 5 (Part E, irbesartan co-administration): serum AGT; conditions: add-on 300 mg orally daily after 800 mg AD-85481
Description: (§1) In a multicenter, randomized, double-blinded, placebo-controlled, single ascending fixed dose study to assess the safety and efficacy of AD-85481 (Zilebesiran) after a single fixed dose administration to subjects having hypertension (ClinicalTrials.gov Identifier: NCT03934307, Part A), a sub-study was performed to assess the safety and tolerability of AD-85481 (Zilebesiran) in hypertensive patients during irbesartan co-administration (NCT03934307, Part E). Briefly, all patients received an open-label single 800 mg fixed dose of AD-85481 by subcutaneous administration on Day 1. On Day 41, patients with a 24-hr mean systolic blood pressure (SBP)≥120 mmHg (N=10) proceeded to receive irbesartan (300 mg oral) once daily from Day 43 to Day 57 for 14 days (FIG. 10).
(§2) The safety and tolerability, change from baseline in serum AGT, and plasma and urine pharmacokinetic parameters were evaluated. Change from baseline in blood pressure was also assessed by 24-hour ABPM.

[1] = system: patients with hypertension; assay: Example 5: blood pressure by 24 hour ABPM with irbesartan add-on; conditions: daily add-on for 2 weeks to zilebesiran 800 mg, Day 43-57
Description: as §1, with “10). The safety and tolerability, change from baseline in serum AGT, and plasma and urine pharmacokinetic parameters were evaluated. Change from baseline in blood pressure was also assessed by 24-hour ABPM. Assessments of AD-85481 also included change from baseline in SBP and DBP determined by 24 hour ambulatory blood pressure monitoring (ABPM).” for “10).”

[2] = system: patients with hypertension; assay: Example 5: safety and tolerability during irbesartan co-administration; conditions: add-on treatment with zilebesiran
Description: as §1, §2
Safety was reported from the start of the study to Day 85. […] There was one mild SAE of acute anemia in the irbesartan add-on group, but was considered not related to study drug, which was a complication of esophagogastroduodenoscopy with biopsy performed during screening prior to dose of zilebesiran.

CCCCC1=NC2(CCCC2)C(=O)N1Cc1ccc(-c2ccccc2-c2nnn[nH]2)cc1 [irbesartan]
effect on serum AGT levels (serum AGT): no additional effect | effect on systolic and diastolic BP (in words) [1]: further reduced systolic and diastolic BP | changes in creatinine or potassium [2]: without clinically significant changes in creatinine or potassium
